Target: human F508del-CFTR (Homo sapiens, UniProt P13569, DEL508-508)
Experiment: F508del-CFTR cell surface expression (corrector activity), DiscoveRx ß-galactosidase complementation chemiluminescence assay in recombinant U2OS cell line;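 also: U2OS cells co-expressing ProLink-tagged F508del-CFTR and a membrane-anchored enzyme acceptor, where more surface CFTR restores β-galactosidase activity measured by chemiluminescence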
Conditions: U2OS cell line, 16h compound incubation; for EC50: EC50, F508del-CFTR cell surface expression, geomean values; for Emax: U2OS, in relation to the Emax of the corrector lumacaftor (=100%), arithmetic mean values

human F508del-CFTR, sequence (P13569 with tags, fused parts or gaps DEL508-508): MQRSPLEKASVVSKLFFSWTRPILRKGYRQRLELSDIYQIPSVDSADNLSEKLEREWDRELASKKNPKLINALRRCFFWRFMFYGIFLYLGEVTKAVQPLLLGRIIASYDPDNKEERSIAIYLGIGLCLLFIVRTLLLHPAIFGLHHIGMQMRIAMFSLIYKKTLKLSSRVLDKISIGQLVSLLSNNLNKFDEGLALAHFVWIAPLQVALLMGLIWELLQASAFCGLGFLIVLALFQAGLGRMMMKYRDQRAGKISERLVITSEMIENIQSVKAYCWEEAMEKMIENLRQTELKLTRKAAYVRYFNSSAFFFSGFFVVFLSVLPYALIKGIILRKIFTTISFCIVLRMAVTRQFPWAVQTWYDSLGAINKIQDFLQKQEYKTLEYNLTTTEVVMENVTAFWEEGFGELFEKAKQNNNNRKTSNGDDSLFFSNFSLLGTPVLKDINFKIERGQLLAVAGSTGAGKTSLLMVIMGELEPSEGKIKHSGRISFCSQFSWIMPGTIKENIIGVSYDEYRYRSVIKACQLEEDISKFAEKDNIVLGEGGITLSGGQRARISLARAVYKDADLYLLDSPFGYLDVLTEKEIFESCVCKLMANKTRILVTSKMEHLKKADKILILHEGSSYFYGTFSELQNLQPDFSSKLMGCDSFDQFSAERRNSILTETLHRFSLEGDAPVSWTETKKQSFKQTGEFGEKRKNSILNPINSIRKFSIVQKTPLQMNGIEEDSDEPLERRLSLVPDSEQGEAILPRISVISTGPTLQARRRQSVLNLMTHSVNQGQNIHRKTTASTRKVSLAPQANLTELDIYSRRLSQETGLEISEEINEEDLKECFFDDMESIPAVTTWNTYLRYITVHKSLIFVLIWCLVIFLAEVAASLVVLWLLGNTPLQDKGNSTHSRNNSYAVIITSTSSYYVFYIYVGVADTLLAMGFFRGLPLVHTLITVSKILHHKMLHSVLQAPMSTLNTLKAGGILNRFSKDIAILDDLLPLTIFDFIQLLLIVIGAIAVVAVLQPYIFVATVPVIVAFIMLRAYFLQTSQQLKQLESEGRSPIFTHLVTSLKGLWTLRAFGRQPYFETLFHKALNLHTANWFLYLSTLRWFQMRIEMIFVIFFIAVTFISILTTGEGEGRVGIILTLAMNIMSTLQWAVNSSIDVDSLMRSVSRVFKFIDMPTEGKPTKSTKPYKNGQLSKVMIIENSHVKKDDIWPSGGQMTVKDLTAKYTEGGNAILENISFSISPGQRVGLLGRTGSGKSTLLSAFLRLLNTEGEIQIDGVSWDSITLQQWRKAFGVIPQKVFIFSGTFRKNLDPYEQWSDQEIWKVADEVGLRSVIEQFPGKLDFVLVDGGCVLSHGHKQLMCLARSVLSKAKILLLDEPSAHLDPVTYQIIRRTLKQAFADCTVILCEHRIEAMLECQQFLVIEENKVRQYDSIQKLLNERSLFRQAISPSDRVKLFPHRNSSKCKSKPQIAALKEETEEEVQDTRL

Row | Compound | EC50 [nM] | Emax [%]
1 | COc1cccc2c1C(=O)N[C@H](C(=O)NCCc1ccco1)CC(=O)N(C)[C@@H](CC(C)C)C(=O)N(CCC1CCCCC1)CC(=O)N[C@H](Cc1ccccc1)CO2 [Example 208, (3R,9S,13S)-3-benzyl-7-(2-cyclohexylethyl)-N-(2-(furan-2-yl)ethyl)-9-isobutyl-16-methoxy-10-methyl-5,8,11,15-tetraoxo-2,3,4,5,6,7,8,9,10,11,12,13,14,15-tetradecahydrobenzo[p][1]oxa[4,7,10,14]tetraazacycloheptadecine-13-carboxamide] | 277 | 188
2 | COc1cccc2c1C(=O)N[C@H](C(=O)NCCc1ccccc1)CC(=O)N(C)[C@@H](CC(C)C)C(=O)N(CCC1CCCCC1)CC(=O)N[C@H](Cc1ccccc1)CO2 [Example 211, (3R,9S,13S)-3-benzyl-7-(2-cyclohexylethyl)-9-isobutyl-16-methoxy-10-methyl-5,8,11,15-tetraoxo-N-phenethyl-2,3,4,5,6,7,8,9,10,11,12,13,14,15-tetradecahydrobenzo[p][1]oxa[4,7,10,14]tetraazacycloheptadecine-13-carboxamide] | 309 | 146
3 | CCc1ccc(CCNC(=O)[C@@H]2CC(=O)N(C)[C@@H](CC(C)C)C(=O)N(CCC3CCCCC3)CC(=O)N[C@H](Cc3ccccc3)COc3cccc(OC)c3C(=O)N2)cc1 [Example 215, (3R,9S,13S)-3-benzyl-7-(2-cyclohexylethyl)-N-(4-ethylphenethyl)-9-isobutyl-16-methoxy-10-methyl-5,8,11,15-tetraoxo-2,3,4,5,6,7,8,9,10,11,12,13,14,15-tetradecahydrobenzo[p][1]oxa[4,7,10,14]tetraazacycloheptadecine-13-carboxamide] | 214 | 172
4 | COCCCCCNC(=O)[C@@H]1CC(=O)N(C)[C@@H](CC(C)C)C(=O)N(CCC2CCCCC2)CC(=O)N[C@H](Cc2ccccc2)COc2cccc(OC)c2C(=O)N1 [Example 216, (3R,9S,13S)-3-benzyl-7-(2-cyclohexylethyl)-9-isobutyl-16-methoxy-N-(5-methoxypentyl)-10-methyl-5,8,11,15-tetraoxo-2,3,4,5,6,7,8,9,10,11,12,13,14,15-tetradecahydrobenzo[p][1]oxa[4,7,10,14]tetraazacycloheptadecine-13-carboxamide] | 420 | 102

The remaining compounds from weak to strong by EC50, led by results:

Row | EC50 [nM] | Emax [%] | Compound
5 | 392 | 118 | COc1cccc2c1C(=O)N[C@H](C(=O)NCCn1nc(C)cc1C)CC(=O)N(C)[C@@H](CC(C)C)C(=O)N(CCC1CCCCC1)CC(=O)N[C@H](Cc1ccccc1)CO2 [Example 209, (3R,9S,13S)-3-benzyl-7-(2-cyclohexylethyl)-N-(2-(3,5-dimethyl-1H-pyrazol-1-yl)ethyl)-9-isobutyl-16-methoxy-10-methyl-5,8,11,15-tetraoxo-2,3,4,5,6,7,8,9,10,11,12,13,14,15-tetradecahydrobenzo[p][1]oxa[4,7,10,14]tetraazacycloheptadecine-13-carboxamide]
6 | 352 | 108 | COCCCNC(=O)[C@@H]1CC(=O)N(C)[C@@H](CC(C)C)C(=O)N(CCC2CCCCC2)CC(=O)N[C@H](Cc2ccccc2)COc2cccc(OC)c2C(=O)N1 [Example 210, (3R,9S,13S)-3-benzyl-7-(2-cyclohexylethyl)-9-isobutyl-16-methoxy-N-(3-methoxypropyl)-10-methyl-5,8,11,15-tetraoxo-2,3,4,5,6,7,8,9,10,11,12,13,14,15-tetradecahydrobenzo[p][1]oxa[4,7,10,14]tetraazacycloheptadecine-13-carboxamide]
7 | 292 | 221 | COc1cccc2c1C(=O)N[C@H](C(=O)NCCc1cc(C)no1)CC(=O)N(C)[C@@H](CC(C)C)C(=O)N(CCC1CCCCC1)CC(=O)N[C@H](Cc1ccccc1)CO2 [Example 214, (3R,9S,13S)-3-benzyl-7-(2-cyclohexylethyl)-9-isobutyl-16-methoxy-10-methyl-N-(2-(3-methylisoxazol-5-yl)ethyl)-5,8,11,15-tetraoxo-2,3,4,5,6,7,8,9,10,11,12,13,14,15-tetradecahydrobenzo[p][1]oxa[4,7,10,14]tetraazacycloheptadecine-13-carboxamide]

Reference: patent US20240208992A1, “MACROCYCLES AS CFTR MODULATORS” (Idorsia Pharmaceuticals Ltd, priority 2021, published 2024)
